The results in this text go back to PubChem BioAssay (NCI).

Among the test systems are 786-0 renal; ACHN renal; HCT-116 colon; HT29 colon; MCF7 breast; OVCAR-4 ovarian; OVCAR-8 ovarian; RPMI-8226 leukemia; RXF 393 renal; HCC-2998 colon.
Test in all cases: inhibition of tumour cell growth, NCI panel, 48 h

Each structure is given as a SMILES string.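 Assay format: 96-well plates, 48-hour exposure. GI50 is the concentration that inhibits growth by half. The concentration for full growth arrest is given as TGI.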

Take `O=C1c2cc([N+](=O)[O-])ccc2-c2ccc3c4ccc5c6c(ccc(c7ccc1c2c73)c64)C(=O)c1cc([N+](=O)[O-])ccc1-5`: the TGI in the test on 786-0 renal, in the test with ACHN renal, with HCT-116 colon, in the test on HT29 colon, in the test with MCF7 breast and in the test on OVCAR-4 ovarian was over 100 µM throughout. Moreover, the TGI with OVCAR-8 ovarian, with RPMI-8226 leukemia and in the test on RXF 393 renal was over 100 µM each time.
Regarding `CCCCCCCCn1ccc2cc(NC(=O)Cn3cc(CN4CCCCC4)nn3)ccc21`, the GI50 with 786-0 renal was 1.8 µM; in the test on ACHN renal, 1.72 µM; with HCC-2998 colon, 1.66 µM; in the test with HCT-116 colon it was 1.7 µM; in the test on HT29 colon, 2.02 µM; in the test on MCF7 breast it was 1.85 µM. For the same molecule, the GI50 in the test on OVCAR-4 ovarian was 3.66 µM; in the test on OVCAR-8 ovarian it was 2.98 µM; with RXF 393 renal, 1.46 µM. Besides, the TGI with 786-0 renal is 3.44 µM; in the test with ACHN renal it was 3.19 µM; in the test with HCC-2998 colon it was 3.28 µM; with HCT-116 colon, 3.19 µM; in the test with HT29 colon it was 4.28 µM; in the test with MCF7 breast it was 4.29 µM. The figures for the TGI in the test on OVCAR-4 ovarian, with OVCAR-8 ovarian and in the test on RXF 393 renal were 14.3 µM, 9.3 µM and 3.06 µM, respectively.
For `CN(Cc1cc(Cl)cc(Cl)c1O)Cc1c(O)ccc2ccccc12`, the TGI was 48.4 µM in the test with 786-0 renal; 31 µM in the test on ACHN renal; 58.7 µM in the test on HCT-116 colon; over 100 µM with HT29 colon; 33.2 µM with MCF7 breast; 38.9 µM in the test on OVCAR-4 ovarian. Further, the values for the TGI in the test on OVCAR-8 ovarian, with RPMI-8226 leukemia and in the test with RXF 393 renal were 39.2 µM, 73.1 µM and 33.6 µM, respectively.
`CC(C)(C)CC(N)=O`: the TGI with 786-0 renal, in the test with ACHN renal, in the test with HCC-2998 colon, in the test with HCT-116 colon, in the test with HT29 colon and in the test with MCF7 breast was over 100 µM throughout. In addition, the TGI in the test on OVCAR-4 ovarian and in the test with OVCAR-8 ovarian was over 100 µM each time.
`Cc1ccc(NC(=O)c2sc3nc4c(cc3c2N)C(=O)CCC4)cc1C`: the GI50 is 0.699 µM in the test with 786-0 renal; 1.42 µM with ACHN renal; 1.96 µM in the test on HCC-2998 colon; 0.546 µM in the test with HCT-116 colon; 0.399 µM in the test on HT29 colon; 0.352 µM with MCF7 breast. Besides, the figures for the GI50 with OVCAR-4 ovarian, in the test on OVCAR-8 ovarian and in the test on RPMI-8226 leukemia were 1.13 µM, 3.45 µM and 1.57 µM, respectively. The TGI in the test on 786-0 renal is over 100 µM; in the test with ACHN renal, over 100 µM; with HCC-2998 colon it was over 100 µM; with HCT-116 colon, over 100 µM; in the test on HT29 colon it was 11.2 µM; in the test with MCF7 breast, over 100 µM. Moreover, the TGI in the test on OVCAR-4 ovarian was over 100 µM; in the test on OVCAR-8 ovarian it was over 100 µM; in the test with RPMI-8226 leukemia, over 30.4 µM.
For `O=S(=O)(/N=c1/scc(-c2ccccc2)n1-c1ccccc1)c1ccc(N2N=C3c4ccccc4CC3C2c2cccs2)cc1` (stereo not given), the GI50 in the test with 786-0 renal was 64.2 µM; with ACHN renal, 42.5 µM; in the test on HCC-2998 colon, 32.8 µM; with HT29 colon, 82 µM; with MCF7 breast it was 29.1 µM; with OVCAR-4 ovarian it was over 100 µM. The GI50 in the test with OVCAR-8 ovarian is 47.2 µM; in the test with RPMI-8226 leukemia, 51 µM; with RXF 393 renal, 98.2 µM. For the same molecule, the TGI is over 100 µM in the test on 786-0 renal; over 100 µM in the test on ACHN renal; 81.3 µM with HCC-2998 colon; over 100 µM with HT29 colon; over 100 µM with MCF7 breast; over 100 µM with OVCAR-4 ovarian. The TGI with OVCAR-8 ovarian, in the test with RPMI-8226 leukemia and in the test with RXF 393 renal was over 100 µM throughout.
With `NCOC(=O)Cc1ccc(Br)cc1`, the TGI with 786-0 renal, in the test on ACHN renal, with HCT-116 colon, in the test on HT29 colon, in the test on MCF7 breast and with OVCAR-8 ovarian was over 100 µM each time. The TGI with RPMI-8226 leukemia and with RXF 393 renal was over 100 µM each time.
For the molecule `O=C1c2cccc(NCCN=Cc3ccccc3O)c2C(=O)c2c(NCCN=Cc3ccccc3O)cccc21`, the GI50 in the test with 786-0 renal was 0.865 µM; in the test on ACHN renal, 1.32 µM; with HCC-2998 colon, 0.535 µM; with HCT-116 colon, 0.387 µM; in the test on HT29 colon, 0.298 µM; in the test on MCF7 breast it was 0.279 µM. Besides, the figures for the GI50 in the test with OVCAR-8 ovarian and in the test with RPMI-8226 leukemia were 0.369 µM and 0.878 µM, respectively. The TGI with 786-0 renal amounted to 3.76 µM; in the test with ACHN renal it was 8.82 µM; in the test with HCC-2998 colon it was 1.72 µM; with HT29 colon, 1.93 µM; in the test with MCF7 breast it was 1.08 µM; in the test with OVCAR-4 ovarian, 2.39 µM. For the same molecule, the TGI with OVCAR-8 ovarian was found to be 2.47 µM; in the test with RPMI-8226 leukemia, 4.29 µM.
Take `COc1cc(/C=C/C(=O)N2CCN(C(=O)c3cc(OC)c(OC)c(OC)c3)CC2)ccc1OCCCOc1cc2c(cc1OC)C(=O)N1CCC[C@H]1C=N2`: the GI50 in the test with 786-0 renal was 0.491 µM; in the test on ACHN renal, 2.64 µM; in the test with HCC-2998 colon it was 0.296 µM; in the test with HT29 colon it was 0.34 µM; with MCF7 breast it was 0.109 µM; in the test on OVCAR-4 ovarian it was 1.53 µM. Further, the GI50 is 0.345 µM in the test on OVCAR-8 ovarian, 0.431 µM in the test with RPMI-8226 leukemia and 0.334 µM in the test with RXF 393 renal. Further, the TGI was 10.6 µM in the test with 786-0 renal; over 35.3 µM in the test on ACHN renal; 0.838 µM in the test on HCC-2998 colon; 12.8 µM in the test on HT29 colon; 0.636 µM in the test with MCF7 breast; 27.5 µM in the test with OVCAR-4 ovarian. For the same molecule, the TGI in the test with RPMI-8226 leukemia is over 100 µM; in the test on RXF 393 renal, 3.68 µM.
Take `COC(=O)C(Cc1nc2ccccc2nc1C)/C(=N\NC(N)=O)C(=O)Nc1cccc([N+](=O)[O-])c1` (stereo not given): the TGI with 786-0 renal, with ACHN renal, in the test on HCC-2998 colon, with HCT-116 colon, in the test with HT29 colon and with OVCAR-4 ovarian was over 100 µM each time. Moreover, the TGI with OVCAR-8 ovarian, in the test with RPMI-8226 leukemia and in the test with RXF 393 renal was over 100 µM each time.
